Laboratory results taken from US9107909B2, “Materials and methods to enhance hematopoietic stem cells engraftment procedures” (priority 2008, dated 2015).

Experiments:
[1] = test system: CXCR4 on human CD34+ UCB cells; assay: CXCR4 surface expression by FACS after pulse exposure, human cells; format: cell-based
From the text: Expression of EP receptors, CXCR4 and Survivin Replicate Lin^neg cell samples from CD45.2 mice were stained for SKL and each of the EP receptors and surface receptor expression on KL and SKL cells determined by FACS. For human EP receptors, UCB was obtained from Wishard Hospital, Indianapolis, Ind. with Institutional Review Board approval. Mononuclear cells were isolated on Ficoll-Paque™ Plus (Amersham Biosciences) and CD34^+ cells positively selected with MACS microbeads (Miltenyi Biotech) (Fukuda and Pelus, 2001). Replicate cells were stained for CD34 and each of the EP receptors and surface expression determined by FACS. […] Cells were stained for SKL (murine cells) and CXCR4, Survivin, and/or active caspase-3, as described above, and analyzed by FACS.
To evaluate CXCR4, Lineage^neg mouse bone marrow cells or CD34^+ UCB were treated on ice with either 1 microMolar dmPGE2 or vehicle control for 2 hours, washed, and then cultured in RPMI-1640/10% HI-FBS at 37° C. for 24 hours, stained for SKL (murine cells) or CD34 (human) and CXCR4 and analyzed by FACS. […] Data are expressed as Mean±SEM % change in mean fluorescence intensity (MFI) of CXCR4 due to treatment with dmPGE2 or vehicle (n=3).

[2] = test system: Survivin in murine SKL cells; assay: Intracellular Survivin by FACS, murine SKL cells; format: cell-based, mouse; conditions: vs control; for increase in Survivin protein, murine SKL cells: 24 hours post-pulse
From the text: (§1) All antibodies were purchased from BD Biosciences unless otherwise noted. For detection and sorting of murine KL and SKL cells, streptavidin conjugated with PE-Cy7 (to stain for biotinylated MACS lineage antibodies (Miltenyi Biotech, Auburn, Calif.)), c-kit-APC, Sca-1-PE or APC-Cy7, CD45. 1-PE and CD45.2-FITC were used. UCB CD34^+ cells were detected using anti-human-CD34-APC. For multilineage analysis, APC-Cy7-Mac-1, PE-Cy7-B-220 and APC-CD3 were used. EP receptors were detected with anti EP1, EP2, EP3 and EP4 rabbit IgG (Cayman Chemicals) and secondary staining with FITC-goat-anti-rabbit IgG (Southern Biotech, Birmingham, Ala.). CXCR4 expression was analyzed using streptavidin-PECy7, c-kit-APC, Sca-1-APC-Cy7, and CXCR4-PE. Apoptosis was measured with FITC-Annexin-V. For Survivin and active caspase-3 detection, cells were permeabilized and fixed using the CytoFix/CytoPerm kit (BD) and stained with anti-active-caspase-3-FITC Flow Kit (BD) or Survivin-PE (R&D Systems).
Expression of EP receptors, CXCR4 and Survivin Replicate Lin^neg cell samples from CD45.2 mice were stained for SKL and each of the EP receptors and surface receptor expression on KL and SKL cells determined by FACS. For human EP receptors, UCB was obtained from Wishard Hospital, Indianapolis, Ind. with Institutional Review Board approval. Mononuclear cells were isolated on Ficoll-Paque™ Plus (Amersham Biosciences) and CD34^+ cells positively selected with MACS microbeads (Miltenyi Biotech) (Fukuda and Pelus, 2001). Replicate cells were stained for CD34 and each of the EP receptors and surface expression determined by FACS. To evaluate CXCR4, Survivin and active caspase-3, Lin^neg cells or CD34^+ UCB were treated on ice with either 1 microMolar dmPGE2 or vehicle control for 2 hours, washed, and then cultured in RPMI-1640+10% FBS at 37° C. for 24 hours. Cells were stained for SKL (murine cells) and CXCR4, Survivin, and/or active caspase-3, as described above, and analyzed by FACS. […]

[3] = test system: active caspase-3 in SKL cells; assay: Active caspase-3 by FACS in SKL cells; format: cell-based, mouse
From the text: as §1
Expression of EP receptors, CXCR4 and Survivin Replicate Lin^neg cell samples from CD45.2 mice were stained for SKL and each of the EP receptors and surface receptor expression on KL and SKL cells determined by FACS. […] Replicate cells were stained for CD34 and each of the EP receptors and surface expression determined by FACS. […]

CXCR4 mRNA = assay: QRT-PCR of CXCR4 mRNA; format: cell-based; conditions: for time post-exposure of (maximal) CXCR4 mRNA upregulation: vs vehicle
Procedure: Total RNA was obtained using the absolutely RNA purification kit (Stratagene, La Jolla, Calif.). A constant amount of RNA was reverse transcribed with random primers (Promega, Madison, Wis.) and MMLV-reverse transcriptase (Promega) in a volume of 50 microLiter with 1 milliMolar dNTPs and RNase inhibitor as described (Fukuda and Pelus, 2001). DNase and RNase free water (Ambion, Austin, Tex.) was added to obtain a final concentration equivalent of 10 nanogram RNA/microLiter and 5 microLiter used for QRT-PCR. Primers for SYBR Green QRTPCR were designed to produce an amplicon size of 75-150 bp. QRT-PCR was performed in a total volume of 30 microLiter using Platinum SYBR Green qPCR supermix UDG with Rox (Invitrogen, Carlsbad, Calif.) in an ABI-7000 (Applied Biosystems, Carlsbad, Calif.), with an activation step of 50° C. for 2 min, denaturation at 95° C. for 2 min and amplification for 45 cycles at 95° C.-15 sec, 50° C.-30 sec, 72° C.-30 sec, followed by dissociation to confirm that only one product was obtained.
Referring now to FIG. 4A, the stromal-cell-derived factor-1 alpha (SDF-1a)/CXCR4 axis has been implicated in HSPC trafficking and homing. The study evaluated whether the improved homing of dmPGE2-treated HSPC was the result of increased SDF-1a/CXCR4 signalling.
(§2) To evaluate CXCR4, Lineage^neg mouse bone marrow cells or CD34^+ UCB were treated on ice with either 1 microMolar dmPGE2 or vehicle control for 2 hours, washed, and then cultured in RPMI-1640/10% HI-FBS at 37° C. for 24 hours, stained for SKL (murine cells) or CD34 (human) and CXCR4 and analyzed by FACS. Referring now to FIG. 4A, CXCR4 expression on murine KL and SKL cells and human CD34^+ UCB cells 24 hours after treatment with dmPGE2. Data are expressed as Mean±SEM % change in mean fluorescence intensity (MFI) of CXCR4 due to treatment with dmPGE2 or vehicle (n=3).

[4] = test system: CXCR4 on murine KL and SKL cells; assay: CXCR4 surface expression by FACS after pulse exposure, murine cells; format: cell-based, mouse; conditions: for CXCR4 expression on KL and SKL cells: pulse-exposure of Lin neg cells, 24 hours
From the text: Expression of EP receptors, CXCR4 and Survivin Replicate Lin^neg cell samples from CD45.2 mice were stained for SKL and each of the EP receptors and surface receptor expression on KL and SKL cells determined by FACS. For human EP receptors, UCB was obtained from Wishard Hospital, Indianapolis, Ind. with Institutional Review Board approval. Mononuclear cells were isolated on Ficoll-Paque™ Plus (Amersham Biosciences) and CD34^+ cells positively selected with MACS microbeads (Miltenyi Biotech) (Fukuda and Pelus, 2001). Replicate cells were stained for CD34 and each of the EP receptors and surface expression determined by FACS. To evaluate CXCR4, Survivin and active caspase-3, Lin^neg cells or CD34^+ UCB were treated on ice with either 1 microMolar dmPGE2 or vehicle control for 2 hours, washed, and then cultured in RPMI-1640+10% FBS at 37° C. for 24 hours. Cells were stained for SKL (murine cells) and CXCR4, Survivin, and/or active caspase-3, as described above, and analyzed by FACS.
as §2

## CCCCC[C@H](O)/C=C/[C@H]1[C@H](O)CC(=O)[C@@H]1C/C=C\CCCC(=O)O [PGE2, Prostaglandin E2]
[1]; after PGE2 exposure
  increase in CXCR4 expression on CD34+ UCB: 17.3%
[2]
  increase in Survivin protein, murine SKL cells: 1.7 fold
[3]; 24-72 hours post exposure
  decrease in active caspase-3: 23-59%
CXCR4 mRNA
  time post-exposure of (maximal) CXCR4 mRNA upregulation: 6 h
[4]; after PGE2 exposure
  increase in CXCR4 expression on SKL: 26.8%
[4]
  CXCR4 expression on KL and SKL cells: increased

## CCCCC(C)(C)[C@H](O)/C=C/[C@H]1[C@H](O)CC(=O)[C@@H]1C/C=C\CCCC(=O)O [dmPGE2, 16,16-dimethyl prostaglandin E2]
[1]; pulse exposure, 24 hours
  CXCR4 expression on CD34+ UCB cells: increased CXCR4 expression
[2]
  increase in Survivin protein, murine SKL cells: 1.7 fold
[2]; QRT-PCR
  Survivin mRNA: elevated Survivin mRNA
[3]; 24, 48 and 72 hours post-exposure, vs control
  active caspase-3 in SKL cells: decreased active caspase-3
CXCR4 mRNA
  increase in CXCR4 mRNA: 2.65 fold
  time post-exposure of (maximal) CXCR4 mRNA upregulation: 6 h
[4]
  CXCR4 expression on KL and SKL cells: increased CXCR4 expression
